# Reference: patent US5821261A, “Substituted saturated aza heterocycles as inhibitors of nitric oxide synthase” (Merck & Co., Inc., priority 1996, dated 1998)
# Structures can show the parent of a compound that is named as a salt.
# Molecular target: Human Inducible Nitric Oxide Synthase (Homo sapiens, UniProt P35228)
# Assay: Inhibition of human inducible nitric oxide synthase (formation of L-[2,3,4,5-3H]citrulline from L-[2,3,4,5-3H]arginine)
# Type: biochemical
# Settings: 1 μM L-Arg, pH 7.5, room temperature, 30 minutes, aqueous DMSO (max. 5%)
# Source text: 26, pp. 258-264. […] J Lowenstein and S. H. Snyder in Methods in Enzymology, Vol. 233, L. Packer, ed., Academic Press, NY, 1994, Ch. 26, pp. 264-269. Various assays for NOS activity have been reported in the literature and are reviewed in the following: M. E. Murphy and E. Noack in Methods in Enzymology, Vol. 233, L. Packer, ed., Academic Press, NY, 1994, Ch. 26, pp. 240-250 and J. M. Hevel and M. A. Marletta in Methods in Enzymology, Vol. 233, L. Packer, ed., Academic Press, NY, 1994, Ch. 26, pp. 250-258. Details for the assay protocols to measure NOS activity are as follows: […] The incubation buffer (100 μL) contained; 100 mM TES, pH 7.5, 5 μM FAD, 5 μM FMN, 10 μM BH4, 0.5 mM NADPH, 0.5 mM DTT, 0.5 mg/mL BSA, 2 mM CaCl2, 10 μg/mL calmodulin (bovine), 1 μM L-Arg, 0.2 μCi L-[2,3,4,5-^3 H]Arg, and the inhibitor in aqueous DMSO (max. 5%). The reaction is initiated by addition of enzyme. Incubations are performed at room temperature for 30 minutes and stopped by the addition of an equal volume of quenching buffer consisting of 200 mM sodium citrate, pH 2.2, 0.02% sodium azide. Reaction products are separated by passing through a cation exchange resin and quantitated as cpm by scintillation counting. Percent inhibition is calculated relative to enzyme incubated without inhibitor according to: […]. Illustrative of the utility of the compounds of Formula I is the ability of such compounds to inhibit NO synthase as shown in Table 1 and as measured by the assay described above: […]
row,SMILES,IC50
1,"N=C(N)SC[C@@H]1CN[C@H](C(=O)O)C1 [compound 5, (4S)-4-[(Isothioureido)methyl]-L-Proline Dihydrochloride]",111 µM
2,"COC(=O)[C@@H]1C[C@@H](CNC(=N)N)CN1 [compound 6, (4R)-4-(Guanidinomethyl)-L-Proline Methyl Ester Dihydrochloride]",11 µM
3,"N=C(N)N[C@@H]1CN[C@H](C(=O)O)C1 [compound 3, (4S)-4-Guanidino-L-Proline Dihydrochloride]",2.7 µM
4,"N=C(N)NC[C@@H]1CN[C@H](C(=O)O)C1 [compound 1, (4S)-4-(Guanidinomethyl)-L-Proline Dihydrochloride]",7.1 µM
5,"N=C(N)NC[C@H]1CN[C@H](C(=O)O)C1 [compound 2, (4R)-4-(Guanidinomethyl)-L-Proline Dihydrochloride]",3.5 µM
